The results in this text go back to patent US20150017628A1, “CRYOPRESERVATION OF CELLS IN ABSENCE OF VITRIFICATION INDUCING AGENTS” (UNIVERSITY OF WARWICK, priority 2012, published 2015).

Molecules are shown by their SMILES.

Data set [1] can be described thus: Ice recrystallisation inhibition (IRI) modified splat assay. Type of data set: physicochemical. The following applies: at these concentrations (1-10 mg·mL^-1). As for the experimental part: Determination of RI activity was achieved using a modified “splat” assay. A 10 μL droplet of the analyte solution in PBS was expelled at a fixed height of 2 m onto a glass coverslip placed upon a pre-cooled (CO2(s)) aluminium plate. This was immediately transferred onto the pre-cooled microscope stage (−6° C.) and left to anneal for 30 minutes. Photographs of the wafer were taken at both 0 and 30 minutes through crossed polarizers. A large number of the ice crystals (30+) were then measured to find the largest grain size dimension along any axis. The average largest value from 3 individual photographs was calculated to give the mean largest grain size (MLGS). Reported errors are the coefficient of variation (standard deviation/mean) from a minimum of 3 individual data sets. Values are reported as the MLGS relative to that obtained for PBS alone.
A polynucleated wafer of ice crystals (each ice crystal is <30 μm) was made from phosphate buffered saline (PBS) solutions of the additive being investigated. Following annealing at −6° C. for 30 minutes, the wafers were imaged through crossed polarisers and the size of the crystals measured. In addition to PVA, two common biocompatible polymers were also assessed for IRI activity; dextran and poly(ethylene glycol) (PEG, FIG. 1C), as they are both commonly added to cryopreservative solutions.

Data set [2] has as its system erythrocytes. The data set is described as follows: Cryoprotectant haemocompatibility / cytotoxicity (haemolysis of erythrocytes). It counts as cell-based, ovine. As for the experimental part:
A 40 μL aliquot of the thawed erythrocyte solution was added to 400 μL PBS and centrifuged (1000×g, 5 min, 4° C.) to remove intact cells. 50 μL of the supernatant was added to 150 μL PBS in a 96-well plate and an absorbance measurement at 450 nm recorded to assess the extent of haemoglobin leakage. 100% haemolysis samples were prepared by osmotic shock through addition of 500 μL H2O to 500 μL erythrocytes suspension and the sample was vortexed vigorously. Control (0% haemolysis) samples were prepared by the addition of 500 μL PBS to 500 μL erythrocytes and left at room temperature (25° C.) for 60 minutes. All measurements were repeated a minimum of 5 times and the reported errors are the coefficient of variation (standard deviation/mean).
Erythrocytes were prepared as described above. A 500 μL aliquot of erythrocytes was added to 500 μL of the polymer or DMSO in PBS and mixed by inversion. The samples were incubated at 25° C. for 120 minutes before analysis. Haemolysis was measured in the same method as used for cryopreservation studies (above). All measurements were repeated in triplicate.
Fresh ovine (defibrinated) erythrocytes were prepared in an identical manner as aforementioned. Samples were prepared in triplicate. A 500 μL aliquot of erythrocytes was added to 500 μL 2× final concentration cryoprotectant in PBS and mixed by inversion. The samples were incubated at room temperature for 120 minutes before analysis. […] This is in contrast to some examples that defined toxicity only at levels exceeding 10% haemolysis. Concentrations higher than this were not deemed necessary for assessment.

As for `C[S+](C)[O-]` [DMSO, dimethylsulfoxide], the “IRI activity of common vitrification solvents” value in data set [1] is “little or no IRI activity”. The “concentration above which significant haemolysis was observed” value is reported as “Above 1.5 w/v %” in data set [2] (120 minutes at 25° C.) and “Above 1.5 wt %” in data set [2] (120 minutes at room temperature, significant haemolysis >5%). Moreover, the “haemolytic property of common cryoprotectant” value in data set [2] (general statement) is on record as “strongly haemolytic”.

As to `OCC(O)CO` [glycerol], in data set [1], the “IRI activity of common vitrification solvents” value is given as “little or no IRI activity”.
